{"source": "patent US20100179202A1", "about": "“ORALLY DISINTEGRATING COMPOSITION OF ZOLMITRIPTAN” (AJANTA PHARMA LIMITED., priority 2009, published 2010)", "origin": "cited, not measured here", "conditions": "background description of the drug substance"}
{"smiles": "CN(C)CCc1c[nH]c2ccc(C[C@H]3COC(=O)N3)cc12", "note": "[Zolmitriptan, (4S)-4-{[3-(2-dimethylaminoethyl)-1H-indol-5-yl]methyl}-1,3-oxazolidin-2-one]", "values": [{"measurement": "solubility in water", "value": "readily soluble in water"}]}
